Test results from patent publication US4959482A, “Pyrrolidinone compounds and pharamaceutical compositions containing same” (Biofor, Ltd., priority 1988, dated 1990).

Columns and labels:
[1] = U.S. Pat. No. 4,357,345; cited from earlier work
[2] = Khimiya Geterotsiklicheskikh Soedinenii, Vol. 12: 1660-1664 (1971); cited from earlier work
[3] = system: yeast-induced fever; test: Antipyretic Evaluation (yeast-induced fever in rats); format: in vivo, male Sprague-Dawley rats; conditions: 300 mg/kg, oral by gavage nineteen hours after yeast injection
Experimental: Antipyretic: This activity was evaluated by creating a yeast-induced fever in rats according to a modified method of the procedure described by Loux et al in "Toxicology and Applied Pharmacology", Vol. 22: page 672 (1972). In this assay rats injected with yeast in distilled water were dosed with test compounds, aspirin (positive control) and a vehicle (negative control) and the observed differences in body temperature were analyzed statistically.
Antipyretic activity was evaluated using a modification of the test described by Loux et al, in Toxicology and Applied Pharmacology, 22:672 (1972), that is, yeast-induced fever in rats. Each test group consisted of ten male Sprague-Dawley rats (Charles River Laboratories), weighing 180-225 grams each. Eighteen hours prior to compound administration the rats were weighed and body temperatures were recorded. Food was removed with water available ad libitum. […]
Test compounds suspended in 0.25% methylcellulose (0.25% MC) or olive oil were administered orally by gavage nineteen hours following the yeast injection. Body temperatures were taken and recorded one hour after compound administration. […] The mean temperature of the compound-treated groups, positive control group (Aspirin) and negative control group (vehicle) were calculated at 18 hours and 20 hours. The data was analyzed statistically using a paired-samples Student's t-Test.

[4] = LD50 (acute toxicity); conditions: rat, in vivo; printed after the oral four-day ulcerogenicity study in female Lewis rats
[5] = system: acetylcholine-induced writhing; test: Acetylcholine Writhing Assay; format: in vivo, male CD-1 mice; conditions: Mus musculus, 0.75 h; oral by gavage, 45 minutes before intraperitoneal acetylcholine; writhes counted for 10 minutes
Experimental: Analgesic: The "Acetylcholine Writhing Assay" (ACH) of Collier et al [Nature; Vol. 204: page 1316 (1964)]was employed. In this study the test compounds were administered orally to mice and 45 minutes later the mice were injected with acetylcholine. The frequency of writhing was counted in each animal and the response elicited in the drug-treated mice was compared with the response of those given acetylcholine alone.
Analgesic activity was evaluated via the mouse acetylcholine writing test using a modification of the procedure described by Collier, et al in Nature (New Biol.) Vol. 204; page 1316 (1964) and Br. J. Pharmacol, Chemother, Vol. 32: page 295 (1968). Each test group consisted of ten male CD-1 mice (Charles River Laboratories) weighing 18-28 grams each. Test compounds suspended in a mixture of 0.25% methylcellulose solution in […] were administered orally by gavage and forty five minutes later the mice were injected intraperitoneally with acetylcholine (0.55 mg/ml in 0.25% methylcellulose). The number of writhes in each group of mice were counted for 10 minutes immediately following the injection of acetylcholine and the percent inhibition was calculated as follows: [formula] Four dose levels were used to calculate the ED50 of the test compound.

[6] = system: Adjuvant arthritis (hind paw edema); test: Adjuvant Arthritis Assay; Developing; format: in vivo, female Lewis rats; conditions: Rattus norvegicus, 96 h, dosed once daily for 4 days in 0.25% methylcellulose, inhibition of hind paw edema on fifth day
Experimental: Anti-Inflammatory: This activity was evaluated via a modification of the Adjuvant Arthritis Assay (AA) described by S. […] This assay measures the ability of the test compound to antagonize local edema, a characteristic of the inflammatory response. […] The left and right rear paws of female Lewis rats (Charles River Laboratories) weighing 160-180 grams each were measured by mercury displacement prior to injection (Day Zero). Adjuvant arthritis was induced in this rat colony by subcutaneous injection of Mycobacterium butyricum (0.75 mg in 0.1 ml light mineral oil, Fisher) using an automated Cornwall syringe. On days 11-15 post-adjuvant the injected animals with 0.25 to 0.75 ml. paw edema were selected and distributed evenly, according to edema size, into control and experimental groups of ten rats each. Vehicle control and drug treatments were assigned to the groups at random. The assay was performed using a variable dose level for each test compound per kilogram per day in 0.25% methylcellulose vehicle. All animals were dosed once daily for 4 days and on the fifth day both hind paw volumes were again measured using mercury displacement. The hind paw edema was determined for each rat by subtracting the hind paw volume measured on Day Zero from the hind paw volume measured on the fifth day of the study. Group means were determined and the drug effect was calculate as percent inhibition of the hind paw edema according to the following equation: [formula] […] The known anti-inflammatory NAPROXEN was also tested for comparison purposes.

[7] = system: Adjuvant arthritis (hind paw edema); test: Adjuvant Arthritis Assay; Immunomodulatory; format: in vivo, Lewis female rats; conditions: 50 mg/kg, oral, Day 5 to 9; paw edema on Day 15
Experimental: Immunomodulatory: This activity was determined by using a Modified Adjuvant Assay procedure in which female rats were injected with Mycobacterium butyricum to induce hind paw edema. The test compounds were administered orally and the difference in volume between dosed and non-dosed paws was determined.
Lewis female rats were injected in the tail subcutaneously with Mycobacterium butyricum (0.75 mg in 0.1 ml light mineral oil, Fisher) on Day Zero. Prior to injection the volumes of the left and right rear paws were measured by mercury displacement. All rats were dosed orally with vehicle or test compounds on Day 5 to 9 inclusive. The volume of both hind paws were determined on Day 15 and the percent inhibitions were calculated based upon average edema on Day 15 relative to the edema mean in the control group.

[8] = system: Adjuvant arthritis (paw edema); test: Adjuvant Arthritis Assay; Established; format: in vivo, rats; conditions: Rattus norvegicus, 552 h; oral, once daily on days 19-22 post adjuvant; paw volume on day 23
Experimental: In this assay the differences between dosed and non-dosed paw values were determined postadjuvant. […] On day 19 post adjuvant all rats were evenly distributed according to edema size. Doses of treatment or vehicle were administered orally to all rats once daily on days 19-22 inclusive. Final paw volumes were determined on day 23 post adjuvant.

CC(C)(C)c1cc(S(=O)(=O)c2ccccc2)cc(C(C)(C)C)c1O [2,6-di-(tert-butyl)-4-(phenylsulfonyl)phenol]
anti-inflammatory activity [1]: absence of anti-inflammatory activity

CC(C)(C)c1cccc(C(C)(C)C)c1O [2,6-di-(tert-butyl)phenol]
anti-inflammatory activity [1]: absence of anti-inflammatory activity

CC(C)(C)c1cc(C=Cc2ccccn2)cc(C(C)(C)C)c1O [2-[2-(3',5'-di-tert-butyl-4'-hydroxyphenyl)ethenyl]pyridine]
effectiveness in the treatment of tumors [2]: effective in the treatment of tumors

Cc1cc(C(C)(C)C)c(O)c(C(C)(C)C)c1 [3,5-di(tert-butyl)-4-hydroxytoluene]
anti-inflammatory activity [1]: little or no value as an anti-inflammatory agent

CC(C)(C)c1cc(C(=O)c2ccccc2Cl)cc(C(C)(C)C)c1O [4-(2-chlorobenzoyl)-2,6-di-(tert-butyl)phenol]
anti-inflammatory activity [1]: absence of anti-inflammatory activity

CC(C)(C)c1cc(C(=O)c2cc(C(=O)O)ccc2Cl)cc(C(C)(C)C)c1O [4-(5-carboxy-2-chlorobenzoyl)-2,6-di-(tert-butyl)phenol]
anti-inflammatory activity [1]: absence of anti-inflammatory activity

CC(C)(C)c1cc(C=Cc2ccncc2)cc(C(C)(C)C)c1O [4-[2-(3',5'-di-tert-butyl-4'-hydroxyphenyl)ethenyl]pyridine]
effectiveness in the treatment of tumors [2]: effective in the treatment of tumors

CC(=O)c1cc(C(C)(C)C)c(O)c(C(C)(C)C)c1 [4-acetyl-2,6-(di-tert-butyl)phenol]
anti-inflammatory activity [1]: absence of anti-inflammatory activity

CC(C)(C)c1cc(C(N)=O)cc(C(C)(C)C)c1O [4-carboxamido-2,6-di-(tert-butyl)phenol]
anti-inflammatory activity [1]: absence of anti-inflammatory activity

CCCCCCCCc1cc(C(C)(C)C)c(O)c(C(C)(C)C)c1 [4-n-octyl-2,6-di-(tert-butyl)phenol]
anti-inflammatory activity [1]: absence of anti-inflammatory activity

CC(=O)Oc1ccccc1C(=O)O [Aspirin]
Change in Temperature, 18-20 Hour Period [3]: -2.05 °C

CC(C)(C)c1cc(N2CCCC2=O)cc(C(C)(C)C)c1O [Example 1, 1-(3,5-Di-tert-Butyl-4-Hydroxyphenyl)Pyrrolidin-2-One]
LD50 [4]: > 1000 mg/kg | ED50 [5]: 13 mg/kg | ED50 [6]: 21 mg/kg | % Inhibition (Adjuvant Arthritis Data-Immunomodulatory) [7]: 39% | ED50 [8]: 36 mg/kg

CC(C)(C)c1cc(N2CCCCC2=O)cc(C(C)(C)C)c1O [Example 2, 1-(3,5-Di-tert-Butyl-4-Hydroxyphenyl)Piperidin-2-One]
ED50 [6]: 34 mg/kg

COc1ccc2cc([C@H](C)C(=O)O)ccc2c1 [NAPROXEN]
ED50 [5]: 6.2 mg/kg | ED50 [6]: 28 mg/kg | ED50 [8]: 28 mg/kg
